system: HCV replicon cells; assay: Cell-based HCV replicon assay (replicon RNA level by real time PCR, Taqman); settings: Hepatitis C virus, 72 h, HCV replicon cells, harvested day 3, replicon RNA by real time PCR; reported as range class; read-out: EC90 (μM) range
In short: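 HCV replicon cells treated 3 days with 10 serial 2-fold compound dilutions (top 25 μM to 1 μM; 0.5% DMSO, 10% FBS). Replicon RNA quantified by multiplex Taqman RT-PCR (NS5B amplicon, GAPDH control); EC50 and EC90 = concentrations giving ΔCT of 1 and 3.2 over baseline.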

| Structure (SMILES) | EC90 [µM] |
| --- | --- |
| CCOc1ccc2nc(-c3c(Cl)nc(N)nc3N[C@@H]3C[C@H](CO)[C@H]4OC(C)(C)O[C@H]43)sc2c1 [Example 195] | < 0.5 |
| COCCNc1nc(C)c(-c2nc3ccccc3s2)c(N[C@@H]2C[C@H](CO)[C@@H](O)[C@H]2O)n1 [Example 205] | < 0.5 |
| CN(C)C(=O)c1ccc2cc(-c3c(Cl)nc(N)nc3N[C@@H]3C[C@H](CO)[C@@H](O)[C@H]3O)oc2c1 [Example 176] | > 5 |
| CCCc1cc2cc(-c3c(Cl)nc(N)nc3N[C@@H]3C[C@H](CO)[C@@H](O)[C@H]3O)oc2cn1 [Example 410] | < 0.5 |

same assay, conditions: Hepatitis C virus, 72 h, HCV replicon cells, harvested on day 3, replicon RNA by real time PCR; calculated EC90 reported as range class; read-out: EC90 (μM) range

| Structure (SMILES) | EC90 [µM] |
| --- | --- |
| Cc1nc(NCCN(C)C)nc(N[C@@H]2C[C@H](CO)[C@H]3OC(C)(C)O[C@H]32)c1-c1nc2ccccc2s1 [Example 245] | > 5 |
| Cc1nc(NCC2CC2)nc(N[C@@H]2C[C@H](CO)[C@@H](O)[C@H]2O)c1-c1cc2cc(C(F)(F)F)ncc2o1 [Example 143] | 0.5 to 5 |
| COc1ccc(CNc2nc(C)c(-c3nc4ccccc4s3)c(N[C@@H]3C[C@H](CO)[C@@H](O)[C@H]3O)n2)cc1OC [Example 709] | < 0.5 |
| Cc1cc(CNc2nc(C)c(-c3nc4ccccc4s3)c(N[C@@H]3C[C@H](CO)[C@@H](O)[C@H]3O)n2)no1 [Example 492] | < 0.5 |
| Cc1nc(NC(C)C)nc(N[C@@H]2C[C@H](CO)[C@@H](O)[C@H]2O)c1-c1nc2ccccc2s1 [Example 427] | < 0.5 |
| CCC(C)(C)Nc1nc(C)c(-c2nc3ccccc3s2)c(N[C@@H]2C[C@H](CO)[C@@H](O)[C@H]2O)n1 [Example 513] | < 0.5 |
| Cc1nc(NCC2CCCCC2)nc(N[C@@H]2C[C@H](CO)[C@@H](O)[C@H]2O)c1-c1nc2ccccc2s1 [Example 323] | < 0.5 |
| Cc1nc(NCc2ccco2)nc(N[C@@H]2C[C@H](CO)[C@H]3OC(C)(C)O[C@H]32)c1-c1nc2ccccc2s1 [Example 469] | < 0.5 |
| Cc1nc(NCc2ccsc2)nc(N[C@@H]2C[C@H](CO)[C@@H](O)[C@H]2O)c1-c1nc2ccccc2s1 [Example 331] | < 0.5 |
| CCOCCNc1nc(C)c(-c2cc3cc(C(F)(F)F)ncc3o2)c(N[C@@H]2C[C@H](CO)[C@H]3OC(C)(C)O[C@H]32)n1 [Example 134] | > 5 |

same assay, conditions: Hepatitis C virus, 72 h, HCV replicon cells, replicon RNA level by real time PCR (Taqman), harvested on day 3; calculated EC90 reported as range class; read-out: EC90 (μM) range

| Structure (SMILES) | EC90 [µM] |
| --- | --- |
| Cc1nc(NCc2ccccc2)nc(N[C@@H]2C[C@H](CO)[C@@H](O)[C@H]2O)c1-c1nc2cnccc2s1 [Example 540] | < 0.5 |
| Cc1nc(NCC(F)(F)F)nc(N[C@@H]2C[C@H](CN(C)C)[C@@H](O)[C@H]2O)c1-c1nc2ccccc2s1 [Example 1016] | 0.5 to 5 |
| COc1cccc2sc(-c3c(C)nc(NCC4CC4)nc3N[C@@H]3C[C@H](CO)[C@@H](O)[C@H]3O)nc12 [Example 1067] | < 0.5 |
| CCc1nccc2sc(-c3c(C)nc(NCC(C)(C)C)nc3N[C@@H]3C[C@H](CO)[C@@H](O)[C@H]3O)nc12 [Example 1334] | < 0.5 |
| Cc1nc(Nc2cccc(OC(F)(F)F)c2)nc(N[C@@H]2C[C@H](CO)[C@@H](O)[C@H]2O)c1-c1nc2ccccc2s1 [Example 1237] | > 5 |
| COc1cccc(Nc2nc(C)c(-c3nc4ccccc4s3)c(N[C@@H]3C[C@H](CO)[C@@H](O)[C@H]3O)n2)c1 [Example 1122] | 0.5 to 5 |

same assay, conditions: Hepatitis C virus, 72 h, HCV replicon cells, replicon RNA level by real time PCR, harvested day 3; read-out: EC90 (μM) range

| Structure (SMILES) | EC90 [µM] |
| --- | --- |
| CCN(C[C@H]1C[C@@H](Nc2nc(NCC(F)(F)F)nc(C)c2-c2nc3ccccc3s2)[C@H](O)[C@@H]1O)C(=O)OC [Example 1391] | < 0.5 |
| CC[C@@H](Nc1nc(C)c(-c2nc3c(C)nccc3s2)c(N[C@@H]2C[C@H](CO)[C@@H](O)[C@H]2O)n1)c1ccc(C)cc1 [Example 1363] | < 0.5 |
| Cc1nc(N[C@H](C)c2cccc(F)c2)nc(N[C@@H]2C[C@H](CO)[C@@H](O)[C@H]2O)c1-c1nc2c(C)nccc2s1 [Example 1524] | < 0.5 |
| Cc1nc(C#N)nc(N[C@@H]2C[C@H](CO)[C@@H](O)[C@H]2O)c1-c1nc2ccccc2s1 [Example 1904] | > 5 |
| Cc1nc(NCC(F)(F)F)nc(N[C@H]2CN[C@@H](CO)C2)c1-c1nc2ccccc2s1 [Example 1349] | > 5 |
| Cc1nc(NCC(F)(F)F)nc(N[C@@H]2C[C@H](CNS(C)(=O)=O)[C@@H](O)[C@H]2O)c1-c1nc2ccccc2s1 [Example 1507] | < 0.5 |

Source: patent publication US8697694B2, “Substituted pyridine and pyrimidine derivatives and their use in treating viral infections” (priority 2008, dated 2014)
